Holding throughout (assay): NCI tumour cell line growth inhibition, 48 h
Test [1] deals with SK-MEL-2 melanoma.
For test [2], the system named is CAKI-1 renal.
In test [3] the test system is OVCAR-5 ovarian.
Test [4] relates to MALME-3M melanoma.
The test system of test [5] is SF-268 CNS.
In test [6] the test system is LOX IMVI melanoma.
Test [7] deals with 786-0 renal.
Test [8] relates to HOP-92 NSCLC.
Test [9] relates to RPMI-8226 leukemia.
Test [10] has as its system MCF7 breast.

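Test compounds were applied to cells in 96-well plates for 48 hours at 5 doses. Abbreviation: GI50, concentration required for 50% inhibition of growth. TGI marks complete inhibition of growth.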

Consider `CCN(C(=O)N1CCN(c2cc3c(cc2F)c(=O)c(C(=O)O)cn3C2CC2)CC1)c1nc(-c2ccccc2)cs1`, for which the GI50 in [1] was 2.02 µM; in [2], 2.58 µM; in [3], 3.27 µM; in test [4], 2.77 µM; in [5] it was 3.29 µM; in test [6] it was 1.39 µM. The GI50 is 2.47 µM in [7], 2.17 µM in test [8], 2.41 µM in [9] and 3.15 µM in test [10]. Besides, the TGI in test [1] was 4.64 µM; in [2], 10.3 µM; in test [3], greater than 100 µM; in test [4], 9.06 µM; in test [5] it was greater than 100 µM; in test [6], 9.09 µM. In addition, the TGI in [7] is 15.5 µM; in [8], 7.53 µM; in [9], 8.75 µM; in test [10], greater than 100 µM.

Take `COc1ccc(-n2cc(-c3cc(OC)c(OC)c(OC)c3)nc2SCc2ccc(Cl)cc2)cc1OC`: the GI50 in test [1], in test [2], in [3], in [4], in [5] and in test [6] was greater than 100 µM throughout. The GI50 in test [7] was greater than 100 µM; in test [8] it was 65.5 µM; in test [9] it was greater than 100 µM; in test [10] it was 92.6 µM. For the same compound, the TGI in test [1], in test [2], in test [3], in [4], in test [5] and in [6] was greater than 100 µM each time. Further, the TGI in test [7], in test [8], in test [9] and in test [10] was greater than 100 µM each time.

In the case of `COc1ccc2[nH]c(Cl)c(/C=C3/C(=O)Nc4ccccc43)c2c1`, the GI50 was 1.2 µM in test [1]; 0.673 µM in [2]; 0.554 µM in [3]; 0.643 µM in test [4]; 0.939 µM in test [5]; 0.345 µM in test [6]. Also, the GI50 in test [7] was 0.282 µM; in [8] it was 1.99 µM; in [9] it was 0.213 µM; in test [10] it was 0.79 µM. Besides, the TGI in test [1] is greater than 30.8 µM; in test [2] it was 1.75 µM; in test [3], 3.12 µM; in test [4], 2.26 µM; in test [5], 36.5 µM; in test [6], 11.3 µM. In addition, the TGI in test [7] is 0.937 µM; in test [8], 4.09 µM; in test [9], 0.591 µM; in test [10], greater than 38.5 µM.

As to `CN(C)c1ccc(C(=S)c2ccc(N(C)C)cc2)cc1`, the GI50 in test [1] was 3.53 µM; in [2], 6.15 µM; in test [3], 39.1 µM; in test [4], 5.5 µM; in test [5] it was 10.1 µM; in test [6], 5.86 µM. In addition, the GI50 in test [7] was 10.3 µM; in test [8] it was 9.01 µM; in test [9] it was 9.89 µM; in test [10], 3.92 µM. Further, the TGI in [1] is 15.2 µM; in [2], greater than 100 µM; in test [3] it was greater than 100 µM; in [4], greater than 100 µM; in test [5] it was greater than 100 µM; in [6], 88.6 µM. Moreover, the TGI in test [7] was greater than 100 µM; in [8], 86.8 µM; in [9], greater than 100 µM; in [10], greater than 100 µM.

Take `Cc1cccc2c(C3=C(c4cn(C)c5ccccc45)C(=O)NC3=O)cn(C)c12`: the GI50 in [1] was 24.3 µM; in test [2], greater than 19.1 µM; in test [3], greater than 25 µM; in [4], greater than 17.8 µM; in test [5], 13.6 µM; in test [6], greater than 22 µM. Further, the GI50 in test [7] is greater than 22.1 µM; in [8], 9.91 µM; in [9], greater than 18.6 µM; in test [10] it was 9.03 µM. Moreover, the TGI in test [1], in [2], in [3], in [4], in test [5] and in test [6] was greater than 25 µM in each case. For the same compound, the TGI in test [7], in test [8], in [9] and in [10] was greater than 25 µM each time.

Consider `C[C@@H](C1CC[C@H]2[C@@H]3[C@@H]4O[C@@H]4[C@@]4(O)CC=CC(=O)[C@]4(C)[C@H]3C[C@H](O)[C@]12C)[C@H]1C[C@]2(C)O[C@]2(C)C(=O)O1` (stereo not given in full), for which the TGI in [1], in [2], in [3], in [4], in test [5] and in test [6] was greater than 100 µM each time. Moreover, the TGI in test [7], in test [8], in test [9] and in test [10] was greater than 100 µM throughout.

Turning to `Clc1ccc(-c2cc(-c3ccccc3)nc(N3CCN(CCCNc4ccnc5cc(Cl)ccc45)CC3)n2)cc1`, the GI50 was 1.82 µM in test [1]; 1.66 µM in test [2]; 1.66 µM in test [3]; 1.81 µM in test [4]; 1.73 µM in test [5]; 1.75 µM in test [6]. For the same compound, the GI50 in test [7] was 1.47 µM; in test [8], 1.21 µM; in test [9], 1.74 µM; in [10], 1.63 µM. Besides, the TGI worked out at 3.39 µM in [1]; 3.13 µM in test [2]; 3.08 µM in test [3]; 3.35 µM in test [4]; 3.64 µM in [5]; 3.19 µM in test [6]. The TGI in test [7] came to 2.84 µM; in [8], 2.6 µM; in [9], 4.41 µM; in [10], 3.81 µM.
